Patent US20250215016A1, “ISOXAZOLE-HETEROCYCLIC DERIVATIVE, PHARMACEUTICAL COMPOSITION AND USE” (SHANGHAI SIMR BIOTECHNOLOGY CO., LTD, priority 2022, published 2025)

Key:
α5-GABAA receptor = α5-GABAA receptor (Homo sapiens (Human), UniProt P18507+P31644); assay: Whole-cell patch clamp electrophysiology, inverse regulation activity in α5β3γ2-HEK293 cells; format: cell-based; conditions: compound 100 nM; GABA 0.05-0.06 μM (about EC7-8); clamped at −60 mV; read-out: Inverse regulation efficiency to α5-GABAA receptor
Excerpt: α, β and γ subunits are essential for the formation of a complete functional GABAA receptor. […] The specific subunit protein sequences are as follows: α5 subunit (protein sequence can be found in GenBank accession number: NM_000810.3); α2 subunit (protein sequence can be found in GenBank accession number: NM_000807.4); β3 subunit (protein sequence can be found in GenBank accession number: NM_000814.5); γ2 subunit (protein sequence can be found in GenBank accession number: NM_000816.3).
(§1) The above cell lines were subcultured. Amplification of α5β3γ2-HEK293 and α2β3γ2-HEK293 cells was used to test the affinity of the compounds to benzodiazepine site (BZD) of the GABAA receptor. During the passage of α5β3γ2-HEK293 cells, some of the suspended cells were spread on a glass slide pretreated with Poly-D-Lysine for electrophysiological testing.
The inverse regulation activity of the test drugs on α5-GABAA receptor was detected by an electrophysiological method. The specific method was as follows:
Compound concentration setting: the final concentration of the compounds used for compound screening was 100 nM. GABA concentration was 0.05-0.06 μM (about EC7-8). […] The extracellular fluid (ECS) ingredients for electrophysiology were as follows: 150 mM NaCl, 5 mM KCl, 2.5 mM CaCl2, 1 mM MgCl2, 10 mM HEPES and 10 mM glucose (pH 7.4); the electrode internal solution (ICS) formula for electrophysiology was as follows: 140 mM CsCl, 11 mM EGTA, 10 mM HEPES, 2 mM CaCl2, 1 mM MgCl2, 4 mM MgATP, 2 mM TEA (pH 7.3). The above reagents were all purchased from Sigma aldrich. GABA (γ-aminobutyric acid, from sigma aldrich, lot: A5385) powder was prepared into a stock solution with pure water and then diluted in ECS. The compound was first prepared into a 4 mM stock solution with DMSO, and then gradually diluted in corresponding concentrations of GABA-ECS. The solutions were all prepared fresh prior to electrophysiological testing.
Electrophysiological signal acquisition were performed by using EPC 10 amplifier and PatchMaster software (HEKA) or Axon 700 B amplifier and Clampex software (AXON). The recording electrode was made by drawing borosilicate glass (purchased from sutter), and has an electrode resistance of 4˜6 MΩ. Extracellular administration was carried out using ALA-VC-8PG (purchased from ALA, USA) system. A single independently grown cell was selected, and lysis was performed after the glass electrode and the cell forming a good seal, to form a whole cell mode. With the cellular membrane potential clamped at −60 mV, recording was carried out in the Gap-free mode. For the test, extracellular fluid was first applied extracellularly for about 20 seconds. After baseline (Iprebaseline) was stabilized, the extracellular fluid was switched to GABA-ECS. At this time, the current (Igaba) caused by GABA can be detected. At about 20-40 seconds, after the current stabilized, the extracellular fluid was switched to a mixed solution of the compound and GABA-ECS, until the current (Itreatment) caused by both the compound and GABA can be detected. Finally, the solution was switched to the extracellular fluid and the test was terminated after recording for 20-40 seconds.
The experimental results were analyzed using PatchMaster v2x90.1 or PatchMaster v2x90.3 software (EPC 10 amplifier) and Clampex10.6 software (Axon700B amplifier). The current value of each stage was calculated according to the average value of the stabilized current under the corresponding conditions. We defined the control current as Igaba−Iprebaseline, and the current after compound treatment as Itreatment−Iprebaseline. The inverse regulation activity of the compounds is expressed as a percentage and is calculated according to the following formula: Inverse regulation efficiency=[(Itreatment−Igaba)/(Igaba−Iprebaseline)]×100%.

[1] = target: human α5β3γ2 receptor (α5-GABAA receptor) (Homo sapiens (Human), UniProt P18507+P31644); assay: Radioligand (3H-flunitrazepam) competition binding assay, BZD site; conditions: 3H-flunitrazepam 1 nM; HEK293 membranes expressing human α5β3γ2
Excerpt: α, β and γ subunits are essential for the formation of a complete functional GABAA receptor. In this example, HEK293 cell strains stably expressing human α5-GABAA receptor (comprising α5β3γ2 subunit) and α2-GABAA receptor (comprising α2β3γ2 subunit) were constructed and screened, respectively, by liposome transfection method (Felgner, P. L., et al., Proceedings of the National Academy of Sciences, 1987, 84:7413-7417). The specific subunit protein sequences are as follows: α5 subunit (protein sequence can be found in GenBank accession number: NM_000810.3); α2 subunit (protein sequence can be found in GenBank accession number: NM_000807.4); β3 subunit (protein sequence can be found in GenBank accession number: NM_000814.5); γ2 subunit (protein sequence can be found in GenBank accession number: NM_000816.3).
as §1
Flunitrazepam is a non-specific reagent that binds to the BZD site efficiently. The affinity of the compounds to the BZD sites of the human α5β3γ2 and α2β3γ2 receptors can be determined by competing the compound with ^3H-flunitrazepam (isotope ^3H-labeled flunitrazepam) for binding to these two receptors.
Membrane preparation: HEK293 cells stably expressing human α5β3γ2 receptor or α2β3γ2 receptor were collected, suspended in 50 mM Tris-HCl buffer (pH=7.4), homogenized on ice by a homogenizer for 20 seconds 10 times, and centrifuged at 4° C., 1000 g for 10 min. The supernatant was collected, and the above steps were repeated. The supernatant was centrifuged (33800 g; centrifuge purchased from Thermo, rotor model: A27-8×50) at 4° C. for 60 min, and the precipitate was resuspended in Tris buffer (50 mM Tris-HCl, 10 mM MgCl2, 0.5 mM EDTA, 10% glycerol). The precipitate was the cell membrane. Protein content was determined by BCA (Bicinchoninic Acid) method (BCA kit from Pierce (Annoron)). The cell membrane was prepared into 1 ml aliquot and stored at −80° C.
Radioligand competition binding assay: the assay was carried out in a 200 μL system (96-well plate from Agilent) with 100 μL of cell membrane. The concentration of ^3H-flunitazepam (from PerkinElmer, lot: NET567250 UC) was 1 nM and the concentration of test compound was in the range 1×10^−5-10^−6 M. Flumazenil (from Tocris; lot: 1318) was used as a control. 1 μL of 2 mM flumazenil (final concentration 10 μM) was added to the Low signal control well (Low control, LC) and 1 μL of DMSO (from Sigma aldrich, lot: 472301) was added to the High signal control well (High control, HC). The final target membrane protein concentration was 5 μg/well. All test compound sample stocks were 10 mM DMSO solutions. The working concentration of the samples is to dilute all samples with DMSO to 0.2 mM, and then perform 4-fold continuous gradient dilution for a total of 8 concentration gradients. The 96-well plate was sealed with a plate sealing membrane and then incubated on a shaker at room temperature for 1 hour. Meanwhile, GF/C filter plate was soaked with a plate soaking buffer (0.3% PEI, polyethyleneimine, purchased from Sigma aldrich, model: P314, stored at 4° C.) for at least 0.5 hours. After completion of binding incubation, the cells were collected with a cell collector onto the GF/C filter plate and washed four times with a plate washing buffer (50 mM Tris-HCl, pH 7.4, stored at 4° C.). […]

[2] = Stability in simulated gastric fluid (SGF); format: physicochemical; conditions: 37° C., 1000 rpm
Description: Simulated gastric fluid (SGF), Manufacturer: Dongguan Chuangfeng Automation Technology Co., Ltd.; Product model: CF-006.
Oscillating constant temperature metal bath, Model: Thermo; Manufacturer: Digital Skaking Drybath.
Temperature: 37° C.; rotating speed: 1000 rpm; sampling time: 0, 4 hours.
Chromatographic column: Welch Xtimate C18 3.0×100 mm, 5 μm. Mobile phase: A: 0.04% trifluoroacetic acid (TFA)/H2O (v/v), B: acetonitrile (ACN). Gradient elution was performed according to the following table, flow rate: 1.0 mL/min; injection volume: 5 μL; column temperature: 35° C.; wavelength: 254 nm.
• (a) preparation of 0.04% TFA/H2O: 400 μL of TFA was measured, placed into 1 L of H2O, and homogenously mixed; • (b) Sample stock solution: about 3 mg of test sample was weighed, and prepared into a stock solution of 10 mmol/L using DMSO; • (c) 50 μL of the sample stock solution was taken, placed into a 5 mL volumetric flask, made up to the scale with the addition of SGF, and homogenously mixed. 400 μL of the solution was taken, four samples in parallel, and shaken at 1000 rpm and 37° C.; • (d) every two samples were taken after 0 and 4 hours respectively, 400 μL of acetonitrile was added, and homogenously mixed, followed by liquid phase injection, and calculation of the change % of the main peak area in the solution after 4 hours relative to 0 hour, two average value reports being taken at each time point.

Structure (SMILES)	inhibition at 0.1 µM (α5-GABAA receptor) [%]	Ki [1] [nM]	Residual content in simulated gastric juice after 4 hours (compared with 0 hour content) [2]
Cc1onc(-c2ccc(F)cc2)c1COc1ccc(-c2nnc3n2CCS(=O)(=O)C3)nn1 [Compound 29, 3-(6-((3-(4-fluorophenyl)-5-methylisoxazol-4-yl)methoxy)pyridazin-3-yl)-5,6-dihydro-8H-[1,2,4]triazolo[3,4-c][1,4]thiazine 7,7-dioxide]	45	0.77	–
Cc1onc(-c2ccc(F)cc2)c1COc1ccc(C(=O)N2CCS(=O)(=O)CC2)cn1 [WO2009071476, Example 112, reference compound]	–	–	2% (4 hours)
Cc1onc(-c2ccc(F)cc2)c1COc1ccc(-c2nnn3c2COCC3)nn1 [Compound 11, 3-(6-((3-(4-fluorophenyl)-5-methylisoxazol-4-yl)methoxy)pyridazin-3-yl)-6,7-dihydro-4H-[1,2,3]triazolo[5,1-c][1,4]oxazine]	45	0.6	–
Cc1onc(-c2ccc(F)cc2)c1COc1cnc(N2CCN3CCNC(=O)[C@@H]3C2)cn1 [Compound 6, (S)-8-(5-((3-(4-fluorophenyl)-5-methylisoxazol-4-yl)methoxy)pyrazin-2-yl) hexahydro-2H-pyrazino[1,2-a]pyrazin-1 (6H)-one]	16	103	–
CCN1CCn2c(nnc2-c2ccc(OCc3c(-c4ccc(F)cc4)noc3C)nc2)C1=O [Compound 13, 7-ethyl-3-(6-((3-(4-fluorophenyl)-5-methylisoxazol-4-yl)methoxy)pyridin-3-yl)-6,7-dihydro-[1,2,4]triazolo[4,3-a]pyrazin-8(5H)-one]	43	12.5	–
Cc1onc(-c2ccc(F)cc2)c1COc1ccc(-c2cc3n(c(=O)n2)CC24CC(CN32)C4)cn1 [Compound 39, 3-(6-((3-(4-fluorophenyl)-5-methylisoxazol-4-yl)methoxy)pyridin-3-yl)-7,8-dihydro-1H,6H,9H-7,8a-methanopyrrolo[1′,2′:3,4]imidazo[1,2-c]pyrimidin-1-one]	44	6.31	–
Cc1onc(-c2ccc(F)cc2)c1COc1ccc(N2CCn3c(C)nnc3C2)nn1 [Compound 34, 3-(4-fluorophenyl)-5-methyl-4-(((6-(3-methyl-5,6-dihydro-[1,2,4]triazolo[4,3-a]pyrazin-7(8H)-yl)pyridazin-3-yl)oxy)methyl)isoxazole]	39	2.44	–
Cc1onc(-c2ccc(F)cc2)c1COc1ccc(-c2ncc3n2CCOC3)cn1 [Compound 28, 3-(6-((3-(4-fluorophenyl)-5-methylisoxazol-4-yl)methoxy)pyridin-3-yl)-5,6-dihydro-8H-imidazo[5,1-c][1,4]oxazine]	42	32.9	–
Cc1onc(-c2ccc(F)cc2)c1COc1ccc(-c2nnc3n2CCN(C)C3=O)nn1 [Compound 14, 3-(6-((3-(4-fluorophenyl)-5-methylisoxazol-4-yl)methoxy)pyridazin-3-yl)-7-methyl-6,7-dihydro-[1,2,4]triazolo[4,3-a]pyrazin-8(5H)-one]	49	2.5	–
Cc1onc(-c2ccc(F)cc2)c1COc1ccc(-c2nnc3n2CCC3)nn1 [Compound 22, 4-(((6-(6,7-dihydro-5H-pyrrolo[2,1-c][1,2,4]triazol-3-yl)pyridazin-3-yl)oxy)methyl)-3-(4-fluorophenyl)-5-methylisoxazole]	50	0.54	–
Cc1onc(-c2ccc(F)cc2)c1COc1ccc(-c2nnc3n2CCCO3)cn1 [Compound 25, 3-(6-((3-(4-fluorophenyl)-5-methylisoxazol-4-yl)methoxy)pyridin-3-yl)-6,7-dihydro-5H-[1,2,4]triazolo[3,4-b][1,3]oxazine]	50	22.1	–
Cc1onc(-c2ccc(F)cc2)c1COc1ccc(-c2nnn3c2COCC3)cn1 [Compound 1, 3-(6-((3-(4-fluorophenyl)-5-methylisoxazol-4-yl)methoxy)pyridin-3-yl)-6,7-dihydro-4H-[1,2,3]triazolo[5,1-c][1,4]oxazine]	38	1.2	–
